In patent publication US8530470B2, “Chromenone derivatives” (Astrazeneca AB, priority 2011, dated 2013):
Read-outs that look alike come from different tables or passages of the source.

Assays:
[1] = target: PI3Kβ (Homo sapiens, UniProt P42338); assay: In vitro enzyme inhibition assay (Kinase Glo), PI3Kβ; assay type: biochemical
Experimental: (§1) (a) In Vitro Enzyme Inhibition Assay
(§2) The inhibition of PI3Kβ, PI3Kα, PI3Kγ and PI3Kδ was evaluated in a Kinase Glo based enzyme activity assay using human recombinant enzymes. The assay measures depletion of ATP after incubation with enzyme, PIP2 and ATP plus compound. ATP at the end of the reaction is detected by addition of Kinase Glo reagent, in this the Ultra Glo™ luciferase (Promega) uses the ATP as a substrate to catalyze the mono-oxygenation of luciferin and the generation of light. A direct relationship exists between the luminescence measured with the Kinase-Glo Plus Reagent and the amount of ATP remaining in a completed kinase reaction and luminescence is inversely related to kinase activity. Twelve different compound concentrations were tested and raw data from the inhibition of PI3Kβ, PI3Kα, PI3Kγ and PI3Kδ was plotted versus inhibitor concentration.
(§3) Compounds in 100% DMSO were added to assay plates by acoustic dispensing. PI3β was added in a Tris buffer (50 mM Tris pH7.4, 0.05% CHAPS, 2.1 mM DTT, and 10 mM MgCl2) and allowed to preincubate with compound for 20 min prior to addition of substrate solution containing PIP2 and ATP. The enzyme reaction was stopped after 80 min by the addition of Kinase Glo detection solution. […] The final concentration of DMSO, ATP and PIP2 in the assay were, 1%, 8 μM, and 80 μM respectively.
(§4) IC50 values were calculated using a log curve fitting to a non-linear regression package, fitting raw data to inhibitor concentration.

[2] = system: phospho AKT (ser473) in MDA-MB-468 cells; assay: Detection of phospho AKT (ser473) in MDA-MB-468 cells; assay type: cell-based; conditions: Homo sapiens, Test (b), 2 hours incubation, approximate value, read-out: IC50 versus cellular phospho AKT (ser473) in MDA-MB-468 cells
Experimental: (b) Protocol for Detection of Phospho AKT (ser473) in MDA-MB-468 Cells
MDA-MB-468 cells (human breast adenocarcinoma ATCC HTB 132) are seeded into Greiner 384 well black flat-bottomed plates by automated cell culture robot (Selec T). Cells can also be maintained manually and seeded into plates using multidrop or Wellmate. Cells seeded at 1500 cell/well in 40 μl of DMEN containing 10% FCS and 1% glutamine. Cell plates are incubated for 18 hours in a 37° C. incubator.
Compounds are dosed onto cells using an Echo acoustic dispenser, which dispenses nl quantities of compound or DMSO. Compounds are dosed in a 12 point concentration range from 30 μM top dose, 28 compounds are dosed on one plate. There are 17 DMSO only positive control wells per plate, and 16 negative control well which have been dosed with a concentration of reference compound that will knockout the pAKT signal.
Plates are incubated at 37° C. for 2 hours, cells are the fixed by the addition of 10 μl of a 3.7% Formaldehyde solution in a fume cupboard using a Wellmate.
After 30 min to allow for fixation, the fixative and media are removed and the plates washed with Proclin PBS/A using Tecan PW384 plate washer in a fume cupboard. Wells are blocked and permeabilised with the addition of 40 μl of PBS containing 0.5% Tween20 and 1% marvel using a Wellmate and incubated for 60 min at room temperature.
Permeabilisation and blocking buffer removed using Tecan PW384 plate washer, then 20 μl primary antibody solution added using a Wellmate. The primary antibody solution is a 1:500 dilution of Rabbit anti-phospho AKT Ser 473 (Cell signalling technologies catalogue number #3787) in PBS/T containing 1% marvel (dried milk powder) and incubated overnight at 4° C.
Plates are washed using a Tecan PW384 plate washer three times with Phosphate Buffered Saline+0.05% (v/v) Polysorbate20 and Proclin300 (Supelco). 20 μl of secondary antibody solution is then added to each well using a Wellmate and incubated for 1 hour at Room Temp. The secondary antibody solution is a 1:1000 dilution of Alexa Fluor 488 anti-Rabbit (Molecular Probes cat no A11008) diluted in Phosphate Buffered Saline+0.05% (v/v) Polysorbate20 containing 1% marvel. Plates are washed three times as before then […] added to each well and plates sealed with black plate sealer.
The plates are read on an Acumen reader as soon as possible. Using this system IC50 values can be generated and quality of plates determined by control wells. Reference compounds are run each time to monitor assay performance.

[3] = target: PI3Kδ (Homo sapiens, UniProt O00329); assay: In vitro enzyme inhibition assay (Kinase Glo), PI3Kδ; assay type: biochemical; conditions: Test (a)
Experimental: as §1, §2, §3, §4

[4] = Test (a), approximate value, read-out: IC50 versus PI3Kβ
[5] = Test (a), human recombinant enzyme, ATP 8 μM, PIP2 80 μM, Table A, read-out: PI3Kβ inhibition, IC50
[6] = approximate value, read-out: IC50 versus PI3Kδ
[7] = human recombinant enzyme, Table A, read-out: PI3Kδ inhibition, IC50

PI3Kδ, sequence (O00329 whole entry): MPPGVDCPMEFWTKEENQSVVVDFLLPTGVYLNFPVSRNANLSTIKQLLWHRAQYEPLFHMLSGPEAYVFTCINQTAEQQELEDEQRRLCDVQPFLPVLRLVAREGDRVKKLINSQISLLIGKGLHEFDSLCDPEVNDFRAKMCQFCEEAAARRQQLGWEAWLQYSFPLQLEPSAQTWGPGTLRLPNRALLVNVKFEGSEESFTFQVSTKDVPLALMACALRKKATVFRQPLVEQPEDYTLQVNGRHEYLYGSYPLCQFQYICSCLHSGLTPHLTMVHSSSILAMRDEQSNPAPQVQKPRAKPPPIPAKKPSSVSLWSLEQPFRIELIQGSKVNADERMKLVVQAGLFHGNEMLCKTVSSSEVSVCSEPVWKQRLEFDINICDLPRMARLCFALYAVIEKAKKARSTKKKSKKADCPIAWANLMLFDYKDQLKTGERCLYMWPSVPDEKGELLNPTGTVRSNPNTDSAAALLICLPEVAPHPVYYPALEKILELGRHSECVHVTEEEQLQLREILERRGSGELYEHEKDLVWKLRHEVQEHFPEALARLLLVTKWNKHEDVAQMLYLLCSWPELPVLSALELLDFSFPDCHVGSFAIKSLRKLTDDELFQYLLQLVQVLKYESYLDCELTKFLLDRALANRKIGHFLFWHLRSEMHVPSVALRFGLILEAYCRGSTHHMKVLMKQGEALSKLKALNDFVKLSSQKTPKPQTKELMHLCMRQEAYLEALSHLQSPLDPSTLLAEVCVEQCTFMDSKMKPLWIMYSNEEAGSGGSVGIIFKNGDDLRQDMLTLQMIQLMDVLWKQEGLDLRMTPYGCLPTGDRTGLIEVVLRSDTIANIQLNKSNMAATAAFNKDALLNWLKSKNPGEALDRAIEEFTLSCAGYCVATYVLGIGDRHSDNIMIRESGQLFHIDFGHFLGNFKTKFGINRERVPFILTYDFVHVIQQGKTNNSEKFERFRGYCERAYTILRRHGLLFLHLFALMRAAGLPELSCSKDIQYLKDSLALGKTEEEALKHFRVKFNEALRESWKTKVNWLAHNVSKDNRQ
PI3Kδ, sequence (P27986 whole entry partner): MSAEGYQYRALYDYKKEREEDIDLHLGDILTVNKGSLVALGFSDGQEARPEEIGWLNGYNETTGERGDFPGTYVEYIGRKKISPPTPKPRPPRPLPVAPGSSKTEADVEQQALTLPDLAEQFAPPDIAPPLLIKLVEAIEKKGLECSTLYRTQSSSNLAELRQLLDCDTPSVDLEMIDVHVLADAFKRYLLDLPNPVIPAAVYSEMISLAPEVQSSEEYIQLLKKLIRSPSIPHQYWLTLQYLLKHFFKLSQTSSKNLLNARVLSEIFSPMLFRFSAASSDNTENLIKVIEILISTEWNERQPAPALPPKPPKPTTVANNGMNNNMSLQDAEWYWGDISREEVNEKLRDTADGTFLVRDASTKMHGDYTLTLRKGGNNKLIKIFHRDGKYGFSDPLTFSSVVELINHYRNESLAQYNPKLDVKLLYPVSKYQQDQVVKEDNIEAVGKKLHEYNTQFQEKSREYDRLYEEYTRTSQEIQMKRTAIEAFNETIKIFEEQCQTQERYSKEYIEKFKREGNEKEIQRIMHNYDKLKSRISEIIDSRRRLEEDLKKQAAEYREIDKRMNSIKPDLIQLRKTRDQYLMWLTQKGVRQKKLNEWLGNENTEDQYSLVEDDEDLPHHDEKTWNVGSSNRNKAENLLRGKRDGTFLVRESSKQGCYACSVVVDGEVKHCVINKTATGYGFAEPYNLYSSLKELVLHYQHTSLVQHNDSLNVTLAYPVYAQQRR
PI3Kβ, sequence (P42338 whole entry): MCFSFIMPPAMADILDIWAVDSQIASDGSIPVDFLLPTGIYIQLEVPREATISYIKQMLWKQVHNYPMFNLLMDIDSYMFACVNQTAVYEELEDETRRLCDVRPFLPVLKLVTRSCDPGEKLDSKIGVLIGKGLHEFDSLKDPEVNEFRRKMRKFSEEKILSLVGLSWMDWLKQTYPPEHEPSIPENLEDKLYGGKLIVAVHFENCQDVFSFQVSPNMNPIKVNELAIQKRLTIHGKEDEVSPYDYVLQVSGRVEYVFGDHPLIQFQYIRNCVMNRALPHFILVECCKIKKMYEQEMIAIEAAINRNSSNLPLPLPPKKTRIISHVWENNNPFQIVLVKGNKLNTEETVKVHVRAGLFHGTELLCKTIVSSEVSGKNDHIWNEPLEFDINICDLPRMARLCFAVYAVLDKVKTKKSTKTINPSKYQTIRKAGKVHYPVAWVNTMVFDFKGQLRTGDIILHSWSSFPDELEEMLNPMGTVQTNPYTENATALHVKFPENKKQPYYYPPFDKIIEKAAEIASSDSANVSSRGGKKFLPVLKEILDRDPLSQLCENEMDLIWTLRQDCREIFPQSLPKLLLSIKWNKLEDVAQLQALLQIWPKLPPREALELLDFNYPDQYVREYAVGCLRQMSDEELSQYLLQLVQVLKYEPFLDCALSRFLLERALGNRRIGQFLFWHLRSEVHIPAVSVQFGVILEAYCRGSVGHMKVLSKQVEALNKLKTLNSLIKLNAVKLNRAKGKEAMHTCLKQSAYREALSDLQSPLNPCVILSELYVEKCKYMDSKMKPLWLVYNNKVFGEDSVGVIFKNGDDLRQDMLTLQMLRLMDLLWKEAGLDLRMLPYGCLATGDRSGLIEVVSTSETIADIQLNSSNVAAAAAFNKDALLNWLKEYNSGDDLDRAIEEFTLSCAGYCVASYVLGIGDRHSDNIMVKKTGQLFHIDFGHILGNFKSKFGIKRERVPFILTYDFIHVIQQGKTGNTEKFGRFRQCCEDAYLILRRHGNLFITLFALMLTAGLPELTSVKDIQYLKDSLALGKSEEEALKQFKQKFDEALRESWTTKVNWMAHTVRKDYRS
PI3Kβ, sequence (P27986 whole entry partner): as the sequence (P27986 whole entry partner) above

IC50 [1, 4] [nM]	IC50 [1, 5] [nM]	IC50 [2] [nM]	IC50 [3, 6] [nM]	IC50 [3, 7] [nM]	SMILES	IC50 ([1]; IC50 versus PI3Kβ) [nM]	IC50 ([1]; read-out: PI3Kβ inhibition, IC50) [nM]
–	17	–	–	19	CN(C)C(=O)c1cc(C2CCCN2c2ccc(F)cc2)c2oc(N3CCOCC3)cc(=O)c2c1 (racemic) [Example 2.04, 8-(1-(4-fluorophenyl)pyrrolidin-2-yl)-N,N-dimethyl-2-morpholino-4-oxo-4H-chromene-6-carboxamide]	–	–
–	10	–	–	15	COc1cccc(N2CCCC2c2cc(C(=O)N(C)C)cc3c(=O)cc(N4CCOCC4)oc23)c1 (centres unmarked) [Example 2.01, 8-(1-(3-methoxyphenyl)pyrrolidin-2-yl)-N,N-dimethyl-2-morpholino-4-oxo-4H-chromene-6-carboxamide]	–	–
–	13	–	–	16	CN(C)C(=O)c1cc(C2CCCN2c2cc(F)cc(C#N)c2)c2oc(N3CCOCC3)cc(=O)c2c1 (centres unmarked) [Example 2.02, 8-(1-(3-cyano-5-fluorophenyl)pyrrolidin-2-yl)-N,N-dimethyl-2-morpholino-4-oxo-4H-chromene-6-carboxamide]	–	–
~11	11	~3	~18	18	C[C@@H]1CN(c2cc(=O)c3cc(C(=O)N4CCOCC4)cc(C4CCCN4c4cc(F)cc(F)c4)c3o2)CCO1 (stereo partly drawn) [Example 3.00, 8-(1-(3,5-difluorophenyl)pyrrolidin-2-yl)-2-((R)-2-methylmorpholino)-6-(morpholine-4-carbonyl)-4H-chromen-4-one]	–	–
–	14	~6	–	15	C[C@@H]1CN(c2cc(=O)c3cc(C(=O)N4CCOCC4)cc(C4CCCN4c4ccccc4)c3o2)CCO1 (stereo partly drawn) [Example 3.01, 2-((R)-2-methylmorpholino)-6-(morpholine-4-carbonyl)-8-(1-phenylpyrrolidin-2-yl)-4H-chromen-4-one]	–	–

The next lines start with the molecule.

SMILES	IC50 [1, 4] [nM]	IC50 [1, 5] [nM]	IC50 [2] [nM]	IC50 [3, 6] [nM]	IC50 [3, 7] [nM]	IC50 ([1]; IC50 versus PI3Kβ) [nM]	IC50 ([1]; read-out: PI3Kβ inhibition, IC50) [nM]
O=C(c1cc(C2CCCN2c2cc(F)cc(F)c2)c2oc(N3CCOCC3)cc(=O)c2c1)N1CCOCC1 (racemic) [Example 1.03, 8-(1-(3,5-difluorophenyl)pyrrolidin-2-yl)-6-(morpholine-4-carbonyl)-2-morpholino-4H-chromen-4-one]	~12	12	~2	~22	22	–	–
O=C(c1cc(C2CCCN2c2ccc(F)cc2)c2oc(N3CCOCC3)cc(=O)c2c1)N1CCOCC1 (racemic) [Example 1.12, 8-(1-(4-fluorophenyl)pyrrolidin-2-yl)-6-(morpholine-4-carbonyl)-2-morpholino-4H-chromen-4-one]	–	15	–	–	32	–	–
CN(C)C(=O)c1cc(C2CCCN2c2cc(F)cc(F)c2)c2oc(N3CCOCC3)cc(=O)c2c1 (centres unmarked) [Example 1.00, 8-[1-(3,5-difluorophenyl)pyrrolidin-2-yl]-N,N-dimethyl-2-morpholino-4-oxo-4H-chromene-6-carboxamide]	–	–	–	–	15	–	–
CN(CCO)C(=O)c1cc(C2CCCN2c2cc(F)cc(F)c2)c2oc(N3CCOCC3)cc(=O)c2c1 (centres unmarked) [Example 1.01, 8-(1-(3,5-difluorophenyl)pyrrolidin-2-yl)-N-(2-hydroxyethyl)-N-methyl-2-morpholino-4-oxo-4H-chromene-6-carboxamide]	–	–	–	–	16	–	–
O=C(c1cc(C2CCCN2c2cc(F)cc(F)c2)c2oc(N3CCOCC3)cc(=O)c2c1)N1CCC(O)CC1 (centres unmarked) [Example 1.02, 8-(1-(3,5-difluorophenyl)pyrrolidin-2-yl)-6-(4-hydroxypiperidine-1-carbonyl)-2-morpholino-4H-chromen-4-one]	–	–	–	–	14	–	–
O=C(c1cc(C2CCCN2c2cc(F)cc(F)c2)c2oc(N3CCOCC3)cc(=O)c2c1)N1CC[S+]([O-])CC1 (centres unmarked) [Example 1.04, 8-[1-(3,5-difluorophenyl)pyrrolidin-2-yl]-2-morpholino-6-[(1-oxidothiomorpholin-4-yl)carbonyl]-4H-chromen-4-one]	~11	11	~5	~24	24	–	–
O=C(c1cc([C@H]2CCCN2c2cc(F)cc(F)c2)c2oc(N3CCOCC3)cc(=O)c2c1)N1CCC1 [Example 1.05, 6-(azetidine-1-carbonyl)-8-[(2R)-(1-(3,5-difluorophenyl)pyrrolidin-2-yl)]-2-morpholino-4H-chromen-4-one]	~7	7	~1	~9	9	–	–
CN(C)C(=O)c1cc([C@H]2CCCN2c2cccc(F)c2)c2oc(N3CCOCC3)cc(=O)c2c1 [Example 1.06, 8-[(2R)-(1-(3-fluorophenyl)pyrrolidin-2-yl)]-N,N-dimethyl-2-morpholino-4-oxo-4H-chromene-6-carboxamide]	~7	7	~1	~7	7	–	–
O=C(c1cc([C@H]2CCCN2c2cccc(F)c2)c2oc(N3CCOCC3)cc(=O)c2c1)N1CCOCC1 [Example 1.07, 8-[(2R)-(1-(3-fluorophenyl)pyrrolidin-2-yl)]-6-(morpholine-4-carbonyl)-2-morpholino-4H-chromen-4-one]	–	6	~2	~5	5	~6	–
O=C(c1cc([C@H]2CCCN2c2cccc(F)c2)c2oc(N3CCOCC3)cc(=O)c2c1)N1CCC1 [Example 1.08, 6-(azetidine-1-carbonyl)-8-[(2R)-(1-(3-fluorophenyl)pyrrolidin-2-yl)]-2-morpholino-4H-chromen-4-one]	~6	6	~2	~6	6	–	–
CN1CCN(C(=O)c2cc([C@H]3CCCN3c3cc(F)cc(F)c3)c3oc(N4CCOCC4)cc(=O)c3c2)CC1 [Example 1.09, 8-[(2R)-(1-(3,5-difluorophenyl)pyrrolidin-2-yl)]-6-(4-methylpiperazine-1-carbonyl)-2-morpholino-4H-chromen-4-one]	–	–	–	–	14	–	–
CN1CCN(C(=O)c2cc([C@H]3CCCN3c3cccc(F)c3)c3oc(N4CCOCC4)cc(=O)c3c2)CC1 [Example 1.10, 8-[(2R)-(1-(3-fluorophenyl)pyrrolidin-2-yl)]-6-(4-methylpiperazine-1-carbonyl)-2-morpholino-4H-chromen-4-one]	~8	8	~4	~21	21	–	–
COc1cccc(N2CCC[C@@H]2c2cc(C(=O)N3CCOCC3)cc3c(=O)cc(N4CCOCC4)oc23)c1 [Example 1.11, 8-[(2R)-(1-(3-methoxyphenyl)pyrrolidin-2-yl)]-6-(morpholine-4-carbonyl)-2-morpholino-4H-chromen-4-one]	~9	9	~8	~15	15	–	–
CN(C)C(=O)c1cc(C2CCCN2c2cccc(F)c2)c2oc(N3CCOCC3)cc(=O)c2c1 (centres unmarked) [Example 2.00, 8-(1-(3-fluorophenyl)pyrrolidin-2-yl)-N,N-dimethyl-2-morpholino-4-oxo-4H-chromene-6-carboxamide]	~9	–	~2	~12	12	–	9
